Data on 14 molecules can be found in PubChem BioAssay (NCI).

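The compound was tested at five concentrations on cells cultured in 96-well plates, with a 48-hour exposure period. GI50 = concentration required for 50% inhibition of growth. Definition used: TGI = concentration required for complete inhibition of growth.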

Common to all, as to test: DTP human tumour cell line panel, 48 h
Test [1] deals with LOX IMVI melanoma.
Test [2] has as its system A549 NSCLC.
The test system of test [3] is SF-539 CNS.
In test [4] the test system is TK-10 renal.
The subject of test [5] is OVCAR-4 ovarian.
Test [6] relates to KM12 colon.
Test [7] concerns NCI-H23 lung.
The test system of test [8] is MDA-MB-435.

By GI50 is commonly meant the concentration that inhibits growth by half. The TGI is the concentration at which net growth stops. Higher therefore signals lower sensitivity of the cells. `O=C(C(=O)c1cc(Br)ccc1O)c1cc(Br)ccc1O`: the GI50 in test [1] was 3.48 µM; in test [2] it was 4.16 µM; in test [3], 4.01 µM; in test [4] it was 3.44 µM; in test [5] it was 6.04 µM; in test [6] it was 3.21 µM. The GI50 was 3.38 µM in test [7] and 2.84 µM in test [8]. In addition, the total growth inhibition concentration (TGI) is 13.6 µM in test [1]; 22.3 µM in test [2]; 18.6 µM in test [3]; 17.9 µM in test [4]; above 100 µM in test [5]; 11.4 µM in test [6]. For the same molecule, the figures for the TGI in test [7] and in test [8] were 19.1 µM and 9.25 µM, respectively.
As to `OCCCCC#Cc1ccccc1C#Cc1ccc(C(F)(F)F)cc1`, the GI50 in test [1] was 17.1 µM; in test [2], 14.3 µM; in test [3] it was 19.7 µM; in test [4], 11.9 µM; in test [5], 11.2 µM; in test [6], 13.9 µM. Also, the values for the GI50 in test [7] and in test [8] were 16.8 µM and 16.3 µM, respectively. For the same molecule, the TGI came out at 31.5 µM in test [1]; 27.6 µM in test [2]; 37.2 µM in test [3]; 25.3 µM in test [4]; 23.9 µM in test [5]; 29.8 µM in test [6]. In addition, the TGI in test [7] amounted to 32.4 µM; in test [8] it was 31.8 µM.
As for `CNCc1ccc(-c2[nH]c3cc(F)cc4c3c2CCNC4=O)cc1`, the GI50 in test [1] is 12.9 µM; in test [2], 19.4 µM; in test [3] it was 15 µM; in test [4], 29.2 µM; in test [5], 13.5 µM; in test [6], 20 µM. Moreover, the values for the GI50 in test [7] and in test [8] were 20.8 µM and 16.5 µM, respectively. Moreover, the total growth inhibition concentration (TGI) in test [1] is 29.2 µM; in test [2], above 71.2 µM; in test [3] it was 30.6 µM; in test [4], 72.7 µM; in test [5], 47.8 µM; in test [6], 45.3 µM. The values for the total growth inhibition concentration (TGI) in test [7] and in test [8] were above 56.7 µM and 36.1 µM, respectively.
In the case of `COc1c(O)c2c3c(c1OC)-c1ccccc1CC3N(S(=O)(=O)c1ccc(C)cc1)CC2` (stereo not drawn), the GI50 in test [1] was 2.59 µM; in test [2], 2 µM; in test [3], 1.15 µM; in test [4], 7.96 µM; in test [5], 3.7 µM; in test [6], 1.76 µM. The figures for the GI50 in test [7] and in test [8] were 1.17 µM and 1.07 µM, respectively. The TGI in test [1] was above 50 µM; in test [2], above 50 µM; in test [3], 3.16 µM; in test [4] it was above 50 µM; in test [5] it was above 50 µM; in test [6], above 50 µM. The TGI in test [7] is 2.71 µM; in test [8], 2.92 µM.
As to `COc1cc(OC)cc(-c2ccc(-c3ccc(C(=N)N)cn3)s2)c1`, the GI50 is 1.7 µM in test [1]; 2.19 µM in test [2]; 1.71 µM in test [3]; 2.06 µM in test [4]; 1.9 µM in test [5]; 1.84 µM in test [6]. Also, the GI50 was 1.78 µM in test [7] and 1.73 µM in test [8]. Further, the TGI came to 3.2 µM in test [1]; 4.69 µM in test [2]; 3.13 µM in test [3]; 4.09 µM in test [4]; 3.64 µM in test [5]; 3.48 µM in test [6]. The TGI stood at 3.5 µM in test [7] and 3.15 µM in test [8].
`O=C(c1ccccc1)C(Br)C(Br)c1ccccc1` (stereo not drawn): the GI50 in test [1] is 1.82 µM; in test [2], 18.3 µM; in test [3], 10.7 µM; in test [4], 1.59 µM; in test [5], 1.66 µM; in test [6], 3.5 µM. In addition, the GI50 is 10.4 µM in test [7] and 2.91 µM in test [8]. For the same molecule, the TGI worked out at 3.41 µM in test [1]; 39.2 µM in test [2]; 22.6 µM in test [3]; 3.01 µM in test [4]; 3.08 µM in test [5]; 11.3 µM in test [6]. For the same molecule, the figures for the TGI in test [7] and in test [8] were 23.8 µM and 11.2 µM, respectively.
With `O=c1[nH]c2ccc([N+](=O)[O-])c(Cl)c2c2ccccc12`, the TGI in test [1] was above 100 µM; in test [2] it was above 100 µM; in test [3], 4.64 µM; in test [4], 11.3 µM; in test [5] it was 24.7 µM; in test [6] it was 4.52 µM. Also, the figures for the concentration for total growth inhibition (TGI) in test [7] and in test [8] were 24.7 µM and 7.6 µM, respectively.
With `N#CCC1(n2cc(-c3ncnc4[nH]ccc34)cn2)CN(C2CCN(C(=O)c3ccnc(C(F)(F)F)c3F)CC2)C1`, the GI50 in test [1] is 96.8 µM; in test [2], above 100 µM; in test [3] it was 37.9 µM; in test [4] it was 55.3 µM; in test [5], above 100 µM; in test [6] it was 36.1 µM. Moreover, the GI50 in test [7] is above 100 µM; in test [8] it was 92.1 µM. Further, the total growth inhibition concentration (TGI) in test [1], in test [2], in test [3], in test [4], in test [5] and in test [6] was above 100 µM in each case. Also, the total growth inhibition concentration (TGI) in test [7] and in test [8] was above 100 µM each time.
On to `Fc1ccc(-c2nn3c(COc4ccc(Cl)cc4)nnc3s2)cc1Oc1ccccc1`, for which the GI50 in test [1] was above 42.2 µM; in test [2] it was 21.9 µM; in test [3], 22.5 µM; in test [4], 13.8 µM; in test [5] it was 50.4 µM; in test [6] it was 40.8 µM. In addition, the GI50 in test [7] is 20.4 µM; in test [8], 30.8 µM. In addition, the TGI in test [1] is above 56.3 µM; in test [2], above 100 µM; in test [3], above 55.5 µM; in test [4] it was 30.3 µM; in test [5] it was above 100 µM; in test [6] it was above 100 µM. Moreover, the total growth inhibition concentration (TGI) in test [7] was 40.2 µM; in test [8], above 71.1 µM.
As for `COc1ccc(/C=C/C(C)=N/OCC(=O)Nc2ccc(Cl)cc2)cc1`, the GI50 in test [1] was 2.63 µM; in test [2] it was 3.06 µM; in test [3], 3.16 µM; in test [4] it was 7.74 µM; in test [5], 1.97 µM; in test [6], 2.24 µM. For the same molecule, the GI50 was 2.54 µM in test [7] and 2.44 µM in test [8]. The total growth inhibition concentration (TGI) stood at 15.5 µM in test [1]; 45.6 µM in test [2]; 13.4 µM in test [3]; 38.9 µM in test [4]; 9.96 µM in test [5]; 16.5 µM in test [6]. The concentration for total growth inhibition (TGI) in test [7] came out at 10.2 µM; in test [8] it was 9.76 µM.
Take `O=c1nc2[nH]c3c(-c4n[nH]c(=O)[nH]c4=O)cccc3c2n[nH]1`: the GI50 in test [1], in test [2], in test [3], in test [4], in test [5] and in test [6] was above 100 µM in each case. Besides, the GI50 in test [7] and in test [8] was above 100 µM each time. Moreover, the TGI in test [1], in test [2], in test [3], in test [4], in test [5] and in test [6] was above 100 µM in each case. Also, the concentration for total growth inhibition (TGI) in test [7] and in test [8] was above 100 µM each time.
On to `CNCc1cccc2c1OCCOCCOCCC(C)S(=O)(=O)c1ccc(cc1)-c1cnc(N)c(n1)C(=O)N2` (stereo not drawn), for which the GI50 in test [1] was 1.81 µM; in test [2], 1.09 µM; in test [3], 1.28 µM; in test [4] it was 1.37 µM; in test [5], 1.32 µM; in test [6], 1.69 µM. The GI50 in test [7] is 3.71 µM; in test [8], 1.57 µM. Besides, the concentration for total growth inhibition (TGI) in test [1] is 5.41 µM; in test [2], 6.83 µM; in test [3], 2.56 µM; in test [4], 8.25 µM; in test [5], 4.32 µM; in test [6], 6.78 µM. The TGI in test [7] came out at 18.9 µM; in test [8], 3.3 µM.
Consider `O=C(Nc1ccc(C(F)(F)F)cc1[N+](=O)[O-])c1cccnc1`, for which the total growth inhibition concentration (TGI) in test [1] is above 100 µM; in test [2] it was above 100 µM; in test [3], 25.5 µM; in test [4], above 100 µM; in test [5], above 100 µM; in test [6], above 100 µM. For the same molecule, the total growth inhibition concentration (TGI) in test [7] is above 100 µM; in test [8], 2.5 µM.
In the case of `CCN1CCN(c2nc(NNC(=O)c3ccccc3)nc(N3CCN(C(c4ccccc4)c4ccccc4)CC3)n2)CC1`, the GI50 was 1.82 µM in test [1]; 3.7 µM in test [2]; 1.84 µM in test [3]; 3.31 µM in test [4]; 5.39 µM in test [5]; 3.42 µM in test [6]. Besides, the GI50 in test [7] is 3.17 µM; in test [8], 1.94 µM. Moreover, the concentration for total growth inhibition (TGI) amounted to 3.35 µM in test [1]; 20.2 µM in test [2]; 3.45 µM in test [3]; 11.4 µM in test [4]; 26.1 µM in test [5]; 11.8 µM in test [6]. The TGI in test [7] was 11.1 µM; in test [8], 3.78 µM.
